Where a name gives a salt, the structure may show the parent alone.
Key:
Format in all cases: biochemical
[1] = system: T1, adenosine deaminase (ADA); experiment: ADA assay (Blum and Schwedt); settings: inhibitor in […] ethanol; unreliable (extrapolated beyond highest tested […])
T1 construct: method of Blum and Schwedt
Excerpt: ADA assay (Blum and Schwedt) on adenosine deaminase (ADA)

lipase = target: T2, lipase; experiment: p-nitrophenyl caprate hydrolysis; settings: substrate p-nitrophenyl caprate; inhibitor in […] ethanol
T2 construct: gene PNLIP; p-nitrophenyl caprate assay
Excerpt: p-nitrophenyl caprate hydrolysis on lipase

neuraminidase = target: T3, neuraminidase; experiment: neuraminidase assay (Myers et al.); settings: inhibitor in […] ethanol
T3 construct: gene nanI; method of Myers et al
Excerpt: neuraminidase assay (Myers et al.) on neuraminidase

CCCCCC[C@H]([C@H](C)O)n1cnc2c(N)ncnc21 [EHNA.HCl]
Adenosine Deaminase / IC50 (mg/mL) * [1]: 0.61 ± 0.05 mg/mL

CCCCCCCCCCC[C@@H](C[C@@H]1OC(=O)[C@H]1CCCCCC)OC(=O)[C@H](CC(C)C)NC=O [Orlistat]
Lipase / IC50 (mg/mL) * (lipase): 0.00245 ± 0.00010 mg/mL

O=c1c(O)c(-c2ccc(O)c(O)c2)oc2cc(O)cc(O)c12 [Quercetin dihydrate]
Neuraminidase / IC50 (mg/mL) * (neuraminidase): 0.00035 ± 0.00005 mg/mL
